PubChem BioAssay AID1963860 (Molecular Pharmacology Branch, DTP, NCI, 2024)

Test system: CN0375-F725-PDC KRAS spheroid viability
Experiment: Anticancer human tumor CN0375-F725-PDC patient-derived colon carcinoma cell line growth inhibition [KRAS2]
Conditions: spheroids with HUVEC and MSC; for viability, T/C: stronger effect = lower value; active means viability on the fitted dose curve at most 10% of control; inactive means the rest
How it was run: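 Combination screen of spheroid viability in tumor-cell co-cultures with endothelial (HUVEC) and mesenchymal stem cell stroma. Each agent was tested in half-log dilutions, topping at clinical Cmax or at 10 microM without a known Cmax.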

[1] = curve of first compound, second compound 0.1 µM
[2] = curve of first compound, second compound 0.316 µM
[3] = curve of first compound, second compound 1 µM
[4] = curve of first compound, second compound 3.16 µM
[5] = curve of first compound, second compound 10 µM
[6] = second compound 0.1 µM, first compound 0.0316 µM
[7] = second compound 0.1 µM, first compound 0.1 µM
[8] = second compound 0.1 µM, first compound 0.316 µM
[9] = second compound 0.1 µM, first compound 1 µM
[10] = second compound 0.1 µM, first compound 3.16 µM
[11] = second compound 0.1 µM, first compound 10 µM
[12] = second compound 0.316 µM, first compound 0.0316 µM
[13] = second compound 0.316 µM, first compound 0.1 µM
[14] = second compound 0.316 µM, first compound 0.316 µM
[15] = second compound 0.316 µM, first compound 1 µM
[16] = second compound 0.316 µM, first compound 3.16 µM
[17] = second compound 0.316 µM, first compound 10 µM
[18] = second compound 1 µM, first compound 0.0316 µM
[19] = second compound 1 µM, first compound 0.1 µM
[20] = second compound 1 µM, first compound 0.316 µM
[21] = second compound 1 µM, first compound 1 µM
[22] = second compound 1 µM, first compound 3.16 µM
[23] = second compound 1 µM, first compound 10 µM
[24] = second compound 3.16 µM, first compound 0.0316 µM
[25] = second compound 3.16 µM, first compound 0.1 µM
[26] = second compound 3.16 µM, first compound 0.316 µM
[27] = second compound 3.16 µM, first compound 1 µM
[28] = second compound 3.16 µM, first compound 3.16 µM
[29] = second compound 3.16 µM, first compound 10 µM
[30] = second compound 10 µM, first compound 0.0316 µM
[31] = second compound 10 µM, first compound 0.1 µM
[32] = second compound 10 µM, first compound 0.316 µM
[33] = second compound 10 µM, first compound 1 µM
[34] = second compound 10 µM, first compound 3.16 µM
[35] = second compound 10 µM, first compound 10 µM
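Further: spheroids exposed to agents for 7 days.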

COc1cc(OC)cc(N(CCNC(C)C)c2ccc3ncc(-c4cnn(C)c4)nc3c2)c1
5.06 µM [middle of 4 runs]: IC50 (curve of compound)
inactive: viability, T/C (compound 0.0316 µM) 94.3% [middle of 5 runs] | viability, T/C (compound 0.1 µM) 91.7% [middle of 5 runs] | viability, T/C (compound 0.316 µM) 92.1% [middle of 5 runs] | viability, T/C (compound 1 µM) 103% [middle of 5 runs] | viability, T/C (compound 3.16 µM) 82.9% [middle of 5 runs]
active: viability, T/C (compound 10 µM) 2.52% [middle of 5 runs]

CCN1CCN(Cc2ccc(Nc3ncc(F)c(-c4cc(F)c5nc(C)n(C(C)C)c5c4)n3)nc2)CC1
inactive: viability, T/C (compound 0.00316 µM) 102% [middle of 5 runs] | viability, T/C (compound 0.01 µM) 95.6% [middle of 5 runs] | viability, T/C (compound 0.0316 µM) 91.2% [middle of 5 runs] | viability, T/C (compound 0.1 µM) 97.8% [middle of 5 runs] | viability, T/C (compound 0.316 µM) 107% [middle of 5 runs] | viability, T/C (compound 1 µM) 101% [middle of 5 runs]
> 1000 nM: IC50 (curve of compound)

CC1(C)CCC(CN2CCN(c3ccc(C(=O)NS(=O)(=O)c4ccc(NCC5CCOCC5)c([N+](=O)[O-])c4)c(Oc4cnc5[nH]ccc5c4)c3)CC2)=C(c2ccc(Cl)cc2)C1 + CNCc1ccccc1-c1csc(C(C)Nc2nc(C)nc3cc(OC)c(OC)cc23)c1
active: viability, T/C [23] 7.89% | viability, T/C [24] 0.26% | viability, T/C [25] 0.27% | viability, T/C [26] 0.18% | viability, T/C [27] 0.2% | viability, T/C [28] 0.25% | viability, T/C [29] 0.68% | viability, T/C [30] 0.12% | viability, T/C [31] 0.14% | viability, T/C [32] 0.13% | viability, T/C [33] 0.13% | viability, T/C [34] 0.16% | viability, T/C [35] 0.19%
inactive: viability, T/C [6] 104% | viability, T/C [7] 104% | viability, T/C [8] 103% | viability, T/C [9] 96.2% | viability, T/C [10] 61.6% | viability, T/C [11] 29.8% | viability, T/C [12] 90.7% | viability, T/C [13] 95.5% | viability, T/C [14] 93.4% | viability, T/C [15] 89.5% | viability, T/C [16] 45.9% | viability, T/C [17] 18.7% | viability, T/C [18] 36.5% | viability, T/C [19] 42.3% | viability, T/C [20] 40.7% | viability, T/C [21] 50.9% | viability, T/C [22] 15.2%
< 31.6 nM: IC50 [3] | IC50 [4] | IC50 [5]
4810 nM: IC50 [1]
2830 nM: IC50 [2]

COc1cc(Nc2ncc3c(n2)-c2ccc(Cl)cc2C(c2c(F)cccc2OC)=NC3)ccc1C(=O)O + CNCc1ccccc1-c1csc(C(C)Nc2nc(C)nc3cc(OC)c(OC)cc23)c1
< 31.6 nM: IC50 [4] | IC50 [5]
> 10000 nM: IC50 [1] | IC50 [2] | IC50 [3]
inactive: viability, T/C [6] 101% | viability, T/C [7] 95% | viability, T/C [8] 93.5% | viability, T/C [9] 90.8% | viability, T/C [10] 89% | viability, T/C [11] 75.9% | viability, T/C [12] 96.8% | viability, T/C [13] 93.1% | viability, T/C [14] 88.4% | viability, T/C [15] 83.8% | viability, T/C [16] 87.3% | viability, T/C [17] 75.7% | viability, T/C [18] 58.2% | viability, T/C [19] 54.7% | viability, T/C [20] 57.5% | viability, T/C [21] 61% | viability, T/C [22] 61.7% | viability, T/C [23] 48.4%
active: viability, T/C [24] 0.72% | viability, T/C [25] 0.93% | viability, T/C [26] 0.51% | viability, T/C [27] 0.58% | viability, T/C [28] 1.16% | viability, T/C [29] 0.38% | viability, T/C [30] 0.31% | viability, T/C [31] 0.48% | viability, T/C [32] 0.55% | viability, T/C [33] 0.16% | viability, T/C [34] 0.24% | viability, T/C [35] 0.19%

O=C(c1cc(Cc2n[nH]c(=O)c3ccccc23)ccc1F)N1CCN(C(=O)C2CC2)CC1 + CC1OCC2(CCN(c3cnc(Sc4ccnc(N)c4Cl)c(N)n3)CC2)C1N
> 10000 nM: IC50 [1] | IC50 [2] | IC50 [3] | IC50 [4] | IC50 [5]
inactive: viability, T/C [6] 97.7% | viability, T/C [7] 98.4% | viability, T/C [8] 91.3% | viability, T/C [9] 100% | viability, T/C [10] 97.8% | viability, T/C [11] 90% | viability, T/C [12] 100% | viability, T/C [13] 93.9% | viability, T/C [14] 90.3% | viability, T/C [15] 89.6% | viability, T/C [16] 93% | viability, T/C [17] 86.4% | viability, T/C [18] 107% | viability, T/C [19] 98.3% | viability, T/C [20] 93.6% | viability, T/C [21] 92.6% | viability, T/C [22] 97.6% | viability, T/C [23] 93.9% | viability, T/C [24] 83.4% | viability, T/C [25] 82.2% | viability, T/C [26] 82.5% | viability, T/C [27] 80.7% | viability, T/C [28] 80.7% | viability, T/C [29] 76.4% | viability, T/C [30] 79.9% | viability, T/C [31] 83.6% | viability, T/C [32] 106% | viability, T/C [33] 77% | viability, T/C [34] 71.4% | viability, T/C [35] 71.1%

CC(=O)Nc1cccc(-n2c(=O)n(C3CC3)c(=O)c3c(Nc4ccc(I)cc4F)n(C)c(=O)c(C)c32)c1 + COc1cc2nc(C)nc(NC(C)c3cc(N)cc(C(F)(F)F)c3)c2cc1OC1CCOC1
< 0.1 nM: IC50 [5]
3.26 nM: IC50 [2]
4.1 nM: IC50 [1]
0.913 nM: IC50 [4]
active: viability, T/C (second compound 10 µM, first compound 0.001 µM) 9.44% | viability, T/C (second compound 10 µM, first compound 0.00316 µM) 3.96% | viability, T/C (second compound 10 µM, first compound 0.01 µM) 6.23% | viability, T/C [30] 1.76%
inactive: viability, T/C (second compound 0.1 µM, first compound 0.0001 µM) 88.3% | viability, T/C (second compound 0.1 µM, first compound 0.000316 µM) 85.3% | viability, T/C (second compound 0.1 µM, first compound 0.001 µM) 65% | viability, T/C (second compound 0.1 µM, first compound 0.00316 µM) 51.6% | viability, T/C (second compound 0.1 µM, first compound 0.01 µM) 43.9% | viability, T/C [6] 30.9% | viability, T/C (second compound 0.316 µM, first compound 0.0001 µM) 84.9% | viability, T/C (second compound 0.316 µM, first compound 0.000316 µM) 77.5% | viability, T/C (second compound 0.316 µM, first compound 0.001 µM) 60.7% | viability, T/C (second compound 0.316 µM, first compound 0.00316 µM) 49.7% | viability, T/C (second compound 0.316 µM, first compound 0.01 µM) 41.9% | viability, T/C [12] 31.6% | viability, T/C (second compound 1 µM, first compound 0.0001 µM) 82.6% | viability, T/C (second compound 1 µM, first compound 0.000316 µM) 70.9% | viability, T/C (second compound 1 µM, first compound 0.001 µM) 54.6% | viability, T/C (second compound 1 µM, first compound 0.00316 µM) 44.1% | viability, T/C (second compound 1 µM, first compound 0.01 µM) 38.4% | viability, T/C [18] 29.8% | viability, T/C (second compound 3.16 µM, first compound 0.0001 µM) 75.4% | viability, T/C (second compound 3.16 µM, first compound 0.000316 µM) 62.4% | viability, T/C (second compound 3.16 µM, first compound 0.001 µM) 49.3% | viability, T/C (second compound 3.16 µM, first compound 0.00316 µM) 36.4% | viability, T/C (second compound 3.16 µM, first compound 0.01 µM) 33.5% | viability, T/C [24] 25.4% | viability, T/C (second compound 10 µM, first compound 0.0001 µM) 14% | viability, T/C (second compound 10 µM, first compound 0.000316 µM) 13.4%
1.85 nM: IC50 [3]
